Results taken from patent US20080241816A1, “Method for Stabilizing Oxidizable Color Developing Reagent” (DAIICHI PURE CHEMICALS CO., LTD, priority 2004, published 2008).

Columns and labels:
[1] = Stabilization Test 1 for TPM-PS (storage at 37° C., absorbance at 600 nm); type: physicochemical; conditions: for absorbance at 600 nm, 2-Week storage / absorbance at 600 nm, 3-Week storage / absorbance at 600 nm, Time 0: 37° C.; for absorbance at 600 nm, Time 0: time 0 (start)
Description: TPM-PS was dissolved in each of the aqueous solutions described below so as to attain a concentration of 60 μM, and stored at 37° C. Subsequently, absorbance was measured at 600 nm by means of an automated analyzer (Model 7150; product of Hitachi, Ltd.).

[2] = Stabilization Test 2 for TPM-PS (storage at 25° C. for 10 days, absorbance at 600 nm); type: physicochemical; conditions: for Variation over 10 days (OD): 600 nm
Description: TPM-PS was dissolved in each of the aqueous solutions described below so as to attain a concentration of 100 μM, and absorbance was measured at 600 nm. After each sample was stored at 25° C. for 10 days, absorbance was again measured at 600 nm.

[3] = 60 μM in 5 mM Citric acid (pH 2.8)
[4] = 60 μM in 5 mM Maleic acid (pH 2.5)
[5] = 60 μM in 5 mM Tartaric acid (pH 2.8)

- absorbance at 600 nm, 2-Week storage [1, 3]: 0.057
- absorbance at 600 nm, 3-Week storage [1, 3]: 0.080
- absorbance at 600 nm, Time 0 [1, 3]: 0.022
- absorbance at 600 nm, 2-Week storage [1, 4]: 0.050
- absorbance at 600 nm, 3-Week storage [1, 4]: 0.072
- absorbance at 600 nm, Time 0 [1, 4]: 0.023
- absorbance at 600 nm, 2-Week storage [1, 5]: 0.064
- absorbance at 600 nm, 3-Week storage [1, 5]: 0.088
- absorbance at 600 nm, Time 0 [1, 5]: 0.024
- absorbance at 600 nm, 2-Week storage ([1]; 60 μM in 20 mM PB-K (pH 8)): 0.132
- absorbance at 600 nm, 3-Week storage ([1]; 60 μM in 20 mM PB-K (pH 8)): 0.215
- absorbance at 600 nm, Time 0 ([1]; 60 μM in 20 mM PB-K (pH 8)): 0.023
- nonspecific color development / stability in solution ([1]; aqueous solutions of pH 1 to 5, 37° C.): suppressed effectively
- Variation over 10 days (OD) ([2]; 100 μM in 100 mM Citrate buffer, pH 3, 25° C.): −0.01 OD
- Variation over 10 days (OD) ([2]; 100 μM in 100 mM Citrate buffer, pH 4, 25° C.): 0.08 OD
- Variation over 10 days (OD) ([2]; 100 μM in 100 mM Citrate buffer, pH 5, 25° C.): 0.15 OD
- Variation over 10 days (OD) ([2]; 100 μM in 100 mM Glycine-HCl, pH 2, 25° C.): 0.00 OD
- Variation over 10 days (OD) ([2]; 100 μM in 100 mM Glycine-HCl, pH 3, 25° C.): −0.01 OD
- Variation over 10 days (OD) ([2]; 100 μM in 100 mM Potassium phosphate buffer, pH 6, 25° C.): 0.22 OD
- Variation over 10 days (OD) ([2]; 100 μM in 100 mM Potassium phosphate buffer, pH 7, 25° C.): 0.16 OD
- Variation over 10 days (OD) ([2]; 100 μM in 100 mM Potassium phosphate buffer, pH 8, 25° C.): 0.17 OD
- Variation over 10 days (OD) ([2]; 100 μM in Control (purified water), pH Not regulated, 25° C.): 0.22 OD
- Variation over 10 days (OD) ([2]; 100 μM in HCl—KCl, pH 1, 25° C.): −0.01 OD
- Variation over 10 days (OD) ([2]; 100 μM in HCl—KCl, pH 2, 25° C.): 0.01 OD
- absorbance variation / storage stability ([2]; aqueous solution of pH 1 to 5, 25° C., 10 days): stably stored
Structure (SMILES): O=S(=O)(O)CCCN(CCCS(=O)(=O)O)c1ccc(C(c2ccc(N(CCCS(=O)(=O)O)CCCS(=O)(=O)O)cc2)c2ccc(N(CCCS(=O)(=O)O)CCCS(=O)(=O)O)cc2)cc1 [TPM-PS, N,N,N′,N′,N″,N″-hexa-3-sulfopropyl-4,4′,4″-triaminotriphenylmethane]
